The source of these data is publication PMC6506541, “A Bio-inspired Hypoxia Sensor using HIF1a-Oxygen-Dependent Degradation Domain” (Scientific Reports, 2019).

Common to all, as to assay type: cell-based, Human
For test [1], the system named is MDA-MB 231 cells. Kind of test: Sensor stabilization by hypoxia-mimetic agents, fluorescence microscopy. The following applies: sensor 500 ng/mL, CoCl2 500 μM or L-Mimosine 800 μM vs vehicle, 3 h incubation, wash, further 3 h. The method, then:
(§1) Human breast cancer cells MDA-MB 231 were maintained at 37 °C and 5% CO2 in RPMI-1640 (Sigma–Aldrich), supplemented with 10% fetal bovine serum (Fisher Scientific). Cells were seeded at a density of 2·10^5 cells per well in 6-multiwell plates 24 h prior treatment. For hypoxia induction, they were treated with either CoCl2 (Sigma–Aldrich) at a final concentration of 500 μM, or L-Mimosine (Sigma–Aldrich) at a final concentration of 800 μM. Treatment with each peptidic sensor (500 ng/mL) was carried out in the presence of the aforementioned inhibitors. After three hours of incubation, supernatants containing the probes and either CoCl2 or L-Mimosine were aspirated, cells were washed once with PBS 1X and fresh medium, containing again either CoCl2 or L-Mimosine, was added to the cells for an extended incubation of three hours. Treatment with proteasome inhibitor MG-132 (Sigma-Aldrich) was carried out for 6 hours at final concentrations of either 20 μM or 40 μM, upon pre-treatment of the cells with the probes, as described previously. Fluorescent probes internalization was quantified using ImageJ (NIH). Quantified fluorescence was expressed as values of corrected total cell fluorescence (CTCF), which was calculated using the formula CTCF = integrated density – (area of selected cell × mean fluorescence of background readings)[44].

Test [2] deals with HA-tagged ubiquitin. In words: Immunoprecipitation of HA-tagged ubiquitinated sensor. As to conditions: MDA-MB 231 cells transfected with pcDNA3-Ub-HA; 5 h with sensor; anti-HA immunoprecipitation; IVIS fluorescence. The method, then: MDA-MB 231 cells were seeded at a density of 2·10^5 cells per well in 6-multiwell plates twenty-four hours prior transfection. Each well was transfected with 2 μg of either pcDNA3-Ub-HA or empty vector pcDNA3 (Invitrogen) using Superfect (Qiagen) as transfection reagent. Twenty-four hours upon transfection culture medium was removed, cells were washed carefully with phosphate buffered saline (PBS; Sigma-Aldrich) and fresh culture medium containing the peptidic sensor 1 was added onto the cells. PBS was used as mock treatment. Five hours upon treatment with the sensor, cells were lysed in native immunoprecipitation buffer, 20 mM Tris·HCl pH 8, 137 mM NaCl,10% glycerol,1% Nonidet P-40 (NP-40), 2 mM EDTA, containing the protease inhibitors sodium orthovanadate (1 mM), PMSF (2 mM) and aprotinin (1 μg/mL) (Sigma-Aldrich). Each immunoprecipitation contained 600 μg of whole protein extract and were incubated overnight with 5 μg of anti-hemagglutinin HA.11 (Clone 16B12) antibody (Abcam) at 4 °C. Equal amounts of rabbit immunoglobulins (Sigma-Aldrich) were used as control. HA-tagged ubiquitins were immunoprecipitated using Protein G-coupled agarose (Santa Cruz), subsequently washed with immunoprecipitation buffer and eluted under native conditions. Fluorescence images were taken using an IVIS Spectrum system (Perkin-Elmer).

Test [3] concerns proteasome. Kind of test: Sensor degradation under proteasome inhibitor MG-132. The following applies: MDA-MB 231 cells; MG-132 20 μM or 40 μM, 6 h, after pre-treatment with probe. The method, then: as §1

On to “LDLEMLAPYIPMDDDFQL [compound 1, 5(6)-ROX-labelled HIF-1α ODD domain peptide (Leu557-Leu574) linked to octa-arginine by O2Oc PEG linkers]”, for which the “stabilization of sensor fluorescence (inhibition of sensor degradation) by hypoxia mimetics” value in test [1] is listed as “stabilized in the presence of both molecules that mimic hypoxia”. For the same sequence, in test [2], the “ubiquitination of sensor (enrichment by HA immunoprecipitation)” value is on record as “degradation of the sensor is ubiquitin proteasome-regulated”. The “effect of proteasome inhibitor MG-132 on degradation of sensor fluorescent signal” value in test [3] is given as “dose-dependent effect on proteasome degradation of fluorescent signal”.
